Data: patent US7135292B2, “Analysis and modification of gene expression in marine invertebrate cells” (Harbor Branch Oceanographic Institution, Inc., priority 2002, dated 2006)

System: Axinella corrugata cell cultures
Test: Human-sequence microarray (Gene Filters) analysis of gene expression, PHA-treated vs untreated sponge cell cultures
Type: cell-based
Settings: PHA treated/untreated, 12 h
Description: Sponge Cells. Cells were obtained from cryopreserved stocks at Harbor Branch Oceanographic Institution. All cells were derived from Axinella corrugata specimens collected in the waters of Florida, the Bahamas, and the Caribbean Sea, and were cryopreserved according to Pomponi et al. (Pomponi et al. 1997b supra). This sponge is relatively common and easy to collect, amenable to culture efforts, and produces the bioactive compound, stevensine, in vitro (Pomponi et al. 1997b supra). Enriched fractions of dissociated sponge cells were prepared, cryopreserved, and thawed according to previously published methods (Pomponi et al. 1997b supra). Cells were incubated at 22–25° C. in a growth medium consisting of a modified and supplemented commercial formulation (Willoughby and Pomponi 2000 supra). The length of the incubation period was based on my unpublished observation of elevated DNA and protein contents (9%, P=0.034, and 9%, P=0.038, respectively) in PHA-treated cultures, according to fluorescent assays of 6 replicate comparisons (Willoughby and Pomponi 2000 supra). Since the effects were observed between 6 and 18 hours after treatment, cells were cultured for 12-hour periods representing the center point of the period of observed changes. Two sets of cultures were incubated with approximately 2×10^8 cells per T-75 flask—a control set and an experimental set treated with 1.5% phytohemagglutinin (PHA) (Life Technologies, M-form).
RNA Isolation. RNA isolation was performed on unrinsed, pelleted cells. Pellets were quickly frozen in a dry ice alcohol bath and stored at −70° C. until RNA isolation. The Qiagen RNeasy® protocol was used, with the following modifications. Samples were disrupted with a micropestle or homogenized by the rotor-stator method, using twice the recommended volume of lysis solution. Prior to column loading, samples were centrifuged through a Qiashredder® column to complete homogenization and remove insoluble material. Supernatant was collected for use in the rest of the protocol. During the first wash step, samples were incubated on the column with DNase 1 (Qiagen or Ambion) for 15 minutes. After the final wash, samples were incubated on the column with the RNase free elution water for 15 minutes prior to elution. Sub-samples were diluted 20× and quantified on a Genequant® spectrophotometer.
cDNA Labeling. Sub-samples of the isolated total RNA (8 μl) were primed with oligo dT (10–20 mer) (Research Genetics, Inc.) for 10 minutes at 70° C., then briefly chilled on ice, followed by addition of 2 volumes of RT cocktail based upon the Life Technologies Superscript II® protocol (containing dATP, dGTP, dTTP, and α-^33P dCTP [NEN Easy Tides®, 3000 Ci/mmol]). The mixture was incubated for 90 minutes at 37° C., and diluted to 100 μl for purification on a Bio-Spin column (Boi-Rad) according to the Gene Filter® (Research Genetics, Inc.) recommended protocol. The resultant labeled probes were then denatured for 3 minutes in a boiling water bath prior to incorporation into the hybridization solution.
Microarrays. Research Genetics Gene Filters®, version 211, were employed in this study. These microarrays feature over 4000 distinct sequence-verified genes spotted onto a 5×7 cm nylon membrane. The DNA at each spot represents approximately 1 kb from the 3′ end of the gene. The microarrays also include spots of total genomic DNA (see FIG. 5). The 211 series is constructed from human sequences. A cross-referenced database listing of all the genes represented on the array is available at http://www.resgen.com. The 2 genes referenced in this work carry the I.M.A.G.E. Consortium (Lennon, G. G., C. Auffray, M. Polymeropoulos and M. B. Soares 1996, Genomics 33:151–152), Clone IDs 81408 (calcineurin B) and 858292 (cdc10).
Hybridization. […]

Which “Ratio, MHC class II DQ-beta associated with DR2, DQw1 protein” value (No. 1) does the source give for phytohemagglutinin [PHA] here?
Its value is 0.492.

And the “Ratio, Collagen, type II, alpha 1 (primary osteoarthritis, spondyloepiphyseal dysplasia, congenital)” value (No. 2)?
The value was 0.384.

What about the “Ratio, Hemoglobin, alpha 1” value (No. 3) of the same substance?
Its value is 0.157.

And the “Ratio, Heat shock 60 kD protein 1 (chaperonin)” value (No. 4)?
Its value is 2.443.

And the “Ratio, Interleukin 7 receptor” value (No. 5)?
Its value is 0.156.

What about the “Ratio, Cytochrome P450, subfamily IVA, polypeptide 11” value (No. 6) of the same substance?
Its value is 0.310.

And the “Ratio, Human metallothionein I-B gene” value (No. 7)?
The value was 0.388.

And the “Ratio, Homo sapiens NF-E2 protein (NF-E2) mRNA, complete cds” value (No. 8)?
The value was 2.223.

And the “Ratio, Tissue inhibitor of metalloproteinase 1 (erythroid potentiating activity, collagenase inhibitor)” value (No. 9)?
The value was 0.252.

And the “Ratio, Adenylate kinase 1” value (No. 10)?
The value was 0.055.

What about the “Ratio, Oxytocin receptor” value (No. 11) of the same substance?
The value was 0.084.

And the “Ratio, Homo sapiens mRNA for epiregulin, complete cds” value (No. 12)?
Its value is 0.101.

What about the “Ratio, Collagen, type V, alpha” value (No. 13) of the same substance?
The value was 0.137.

What about the “Ratio, MpV17 transgene, murine homolog, glomerulosclerosis” value (No. 14) of the same substance?
Its value is 0.319.

And the “Ratio, Tyrosine 3-monooxygenase/tryptophan 5-monooxygenase activation protein, zeta polypeptide” value (No. 15)?
The value was 9.835.

And the “Ratio, Von Hippel-Lindau syndrome” value (No. 16)?
The value was 2.707.

What about the “Ratio, Homo sapiens TNF-alpha stimulated ABC protein (ABC50) mRNA, complete cds” value (No. 17) of the same substance?
Its value is 3.865.

What about the “Ratio, Human brain mRNA for photolyase homolog, complete cds” value (No. 18) of the same substance?
Its value is 2.486.

And the “Ratio, Human BTG2 (BTG2) mRNA, complete cds” value (No. 19)?
The value was 2.431.

And the “Ratio, Membrane metallo-endopeptidase (neutral endopeptidase, enkephalinase, CALLA, CD10)” value (No. 20)?
Its value is 0.169.

And the “Ratio, Calcineurin B” value (No. 21)?
The value was 0.318.

What about the “Ratio, Cell division cycle 10 (homologous to CDC10 of S. cerevisiae)” value (No. 22) of the same substance?
The value was 2.302.

What about the “Ratio, Human renal cell carcinoma antigen RAGE-1 mRNA, complete putative cds” value (No. 23) of the same substance?
Its value is 0.477.

What about the “Ratio, Homo sapiens putative OSP like protein mRNA, partial cds” value (No. 24) of the same substance?
Its value is 0.491.

What about the “Ratio, H. sapiens mRNA for translin associated protein X” value (No. 25) of the same substance?
Its value is 2.631.

And the “Ratio, H. sapiens mRNA for phosphate cyclase” value (No. 26)?
The value was 0.395.

What about the “Ratio, JNK activating kinase 1” value (No. 27) of the same substance?
Its value is 0.170.

What about the “Ratio, Collagen, type IX, alpha 3” value (No. 28) of the same substance?
The value was 47.686.

What about the “Ratio, Non-catalytic region of tyrosine kinase” value (No. 29) of the same substance?
The value was 0.233.

What about the “Ratio, Triosephosphate isomerase 1” value (No. 30) of the same substance?
Its value is 0.357.

And the “Ratio, Calreticulin Precursor” value (No. 31)?
The value was 12.868.

And the “Ratio, Human transportin (TRN) mRNA, complete cds” value (No. 32)?
Its value is 3.328.

What about the “Ratio, Fanconi anemia complementation group C” value (No. 33) of the same substance?
The value was 0.342.

What about the “Ratio, Zinc finger protein basonuclin” value (No. 34) of the same substance?
Its value is 0.417.

And the “Ratio, Autosomal dominant polycystic kidney disease type II” value (No. 35)?
The value was 0.224.

And the “Ratio, Double-stranded RNA adenosine deaminase” value (No. 36)?
The value was 0.456.

And the “Ratio, Dual specificity protein phosphatase PAC-1” value (No. 37)?
Its value is 0.175.

What about the “Ratio, Homo sapiens Tax interaction protein 33 mRNA, partial cds” value (No. 38) of the same substance?
Its value is 0.426.

What about the “Ratio, H. sapiens mRNA for M-phase phosphoprotein, mpp5” value (No. 39) of the same substance?
The value was 2.970.

And the “Ratio, Nucleolysin TIA-1” value (No. 40)?
The value was 0.430.

What about the “Ratio, Homo sapiens mRNA for ISLR, complete cds” value (No. 41) of the same substance?
Its value is 12.597.

What about the “Ratio, H. sapiens mRNA for M130 antigen” value (No. 42) of the same substance?
Its value is 0.443.

And the “Ratio, Human tRNA-guanine transglycosylase mRNA, complete cds” value (No. 43)?
Its value is 0.213.

What about the “Ratio, Homo sapiens mRNA for vesicle associated membrane protein 2 (VAMP2)” value (No. 44) of the same substance?
The value was 3.925.

What about the “Ratio, Erythrocyte membrane protein band 4.9 (dematin)” value (No. 45) of the same substance?
Its value is 0.408.

What about the “Ratio, 6-Pyruvol tetrahydrobiopterin synthase” value (No. 46) of the same substance?
The value was 0.440.

And the “Ratio, Villin” value (No. 47)?
The value was 0.008.

And the “Ratio, Multidrug reistance protein 1” value (No. 48)?
Its value is 3.272.

And the “Ratio, Human histone H2B.1 mRNA, 3′ end” value (No. 49)?
The value was 0.247.

What about the “Ratio, Human heregulin-betal gene, complete cds” value (No. 50) of the same substance?
Its value is 5.582.

And the “Ratio, Amyloid P component, serum” value (No. 51)?
The value was 3.994.

And the “Ratio, Alternative guanine nucleotide-binding regulatory protein (G) alpha-inhibitory-subunit” value (No. 52)?
Its value is 0.462.

What about the “Ratio, Ribosomal protein S6 kinase, 90 kD, polypeptide 2” value (No. 53) of the same substance?
Its value is 0.252.

What about the “Ratio, Interleukin 15 receptor alpha chain” value (No. 54) of the same substance?
The value was 3.996.

What about the “Ratio, Cadherin 11 (OB-cadherin)” value (No. 55) of the same substance?
Its value is 0.425.
